# Laboratory results: patent publication US8952024B2, “Herbicidal pyrimidone derivatives” (E I du Pont de Nemours and Company, priority 2009, dated 2015)
# Tests used:
# Format in all cases: in vivo
# [1] = test system: ducksalad (Heteranthera limosa); test: Test B flooded paddy test; details: for Plant response rating, Flood, Ducksalad: 250 g ai/ha, flooded paddy test, visual rating on 0 to 100 scale (0 no effect, 100 complete control) after 13 to 15 days; for Plant response rating, Ducksalad: Flood (flooded paddy test), 13 to 15 days; for Ducksalad plant response rating: Flood, 31 g ai/ha, scale 0 to 100 (0 no effect, 100 complete control)
# Outline: (§1)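 Plants were grown to the 2-leaf stage, then pots were flooded to 3 cm above the soil and compounds were applied directly into the paddy water. That depth was held throughout. After 13 to 15 days in a greenhouse, injury was visually rated against controls on a 0–100 scale.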
# [2] = test system: barnyardgrass (Echinochloa crus-galli); test: Test B flooded paddy test; details: for Plant response rating, Flood, Barnyardgrass: 250 g ai/ha, flooded paddy test, visual rating on 0 to 100 scale (0 no effect, 100 complete control) after 13 to 15 days; for Plant response rating, Barnyardgrass: Flood (flooded paddy test), 13 to 15 days; for Barnyardgrass plant response rating: Flood, 31 g ai/ha, scale 0 to 100 (0 no effect, 100 complete control)
# Outline: as §1
# [3] = test system: umbrella sedge (Cyperus difformis); test: Test B flooded paddy test; details: for Plant response rating, Flood, Sedge, Umbrella: 250 g ai/ha, flooded paddy test, visual rating on 0 to 100 scale (0 no effect, 100 complete control) after 13 to 15 days; for Plant response rating, Sedge, Umbrella: Flood (flooded paddy test), 13 to 15 days; for Sedge, Umbrella plant response rating: Flood, 31 g ai/ha, scale 0 to 100 (0 no effect, 100 complete control)
# Outline: as §1
# rice (Oryza sativa) = test: Test B flooded paddy test; details: for Plant response rating, Flood, Rice: 250 g ai/ha, flooded paddy test, visual rating on 0 to 100 scale (0 no effect, 100 complete control) after 13 to 15 days; for Plant response rating, Rice: Flood (flooded paddy test), 13 to 15 days; for Rice plant response rating: Flood, 31 g ai/ha, scale 0 to 100 (0 no effect, 100 complete control)
# Outline: as §1
# [4] = test system: windgrass (Apera spica-venti); test: Test B postemergence plant response; details: for Windgrass plant response rating (0 to 100 scale): 62 g ai/ha, 0 is no effect, 13 to 15 days
# Outline: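 Plants at the 1- to 4-leaf stage (2 to 18 cm tall), grown in pots of peat moss/vermiculite medium with wetting agent and starter nutrients, received postemergence applications of test chemicals. After 13 to 15 days in a greenhouse, injury was rated visually against untreated controls on a 0 (no effect) to 100 (complete control) scale.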
# [5] = test system: morningglory (Ipomoea spp.); test: Test A pre-/postemergence plant response
# Outline: (§2)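 Formulated test chemicals (non-phytotoxic solvent, surfactant) were sprayed onto soil right after planting and simultaneously onto young plants at one to two leaves, 2 to 10 cm tall. Plants stayed in the greenhouse about ten days; injury was then visually scored against untreated controls, from 0 (no effect) to 100 (complete control).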
# [6] = test system: barnyardgrass (Echinochloa crus-galli); test: Test A pre-/postemergence plant response
# Outline: as §2
# [7] = test system: giant foxtail (Setaria faberii); test: Test A pre-/postemergence plant response
# Outline: as §2
# corn (Zea mays) = test: Test A pre-/postemergence plant response
# Outline: as §2
# [8] = test system: wheat (Triticum aestivum); test: Test A pre-/postemergence plant response
# Outline: as §2
# [9] = test system: large crabgrass (Digitaria sanguinalis); test: Test A pre-/postemergence plant response
# Outline: as §2
# [10] = test system: velvetleaf (Abutilon theophrasti); test: Test A pre-/postemergence plant response
# Outline: as §2
# [11] = test system: pigweed (Amaranthus retroflexus); test: Test A pre-/postemergence plant response
# Outline: as §2
# [12] = 62 g ai/ha, scale of 0 to 100 where 0 is no effect and 100 is complete control
# [13] = 125 g ai/ha, scale 0 to 100, 0 is no effect, 100 is complete control
# [14] = 31 g ai/ha, postemergence, scale 0 to 100, 0 is no effect, 100 is complete control
# [15] = postemergence, 100 is complete control
# [16] = Postemergence, 125 g ai/ha, visual rating after 13 to 15 days, scale 0 (no effect) to 100 (complete control)
# [17] = Postemergence, 125 g ai/ha, visual injury, 0 to 100 scale (0 no effect, 100 complete control), approx. ten days
# [18] = Postemergence, 500 g ai/ha, 0 to 100 scale, 0 = no effect, 100 = complete control, approx. ten days
# [19] = Preemergence, 125 g ai/ha, 0 to 100 scale, 0 = no effect, 100 = complete control
# [20] = Preemergence, 500 g ai/ha, visual injury, 0 to 100 scale (0 no effect, 100 complete control), approx. ten days
compound,measurement,setting,value
O=C1CCCC(O)=C1C(=O)c1cnc(-c2cccc(Br)c2)n(-c2ccccc2)c1=O [Compound 69],"Plant response rating, Flood, Ducksalad",[1],20
same,"Plant response rating, Ducksalad",[1]; [12],0
same,"Plant response rating, Ducksalad",[1]; [13],0
same,Ducksalad plant response rating,[1],0
same,"Plant response rating, Flood, Barnyardgrass",[2],30
same,"Plant response rating, Barnyardgrass",[2]; [12],0
same,"Plant response rating, Barnyardgrass",[2]; [13],20
same,Barnyardgrass plant response rating,[2],0
same,"Plant response rating, Flood, Sedge, Umbrella",[3],40
same,"Plant response rating, Sedge, Umbrella",[3]; [12],0
same,"Plant response rating, Sedge, Umbrella",[3]; [13],0
same,"Sedge, Umbrella plant response rating",[3],0
same,"Plant response rating, Flood, Rice",rice (Oryza sativa),0
same,"Plant response rating, Rice",rice (Oryza sativa); [12],0
same,"Plant response rating, Rice",rice (Oryza sativa); [13],0
same,Rice plant response rating,rice (Oryza sativa),0
same,"Plant response rating, Windgrass","[4]; 16 g ai/ha, Postemergence, 0 to 100 scale",40
same,"Plant response rating, Windgrass",[4]; [14],60
same,Windgrass plant response rating (0 to 100 scale),[4]; [15],60
same,"Plant response rating, Windgrass",[4]; [16],80
same,Morningglory plant response rating,[5]; [17],100
same,"Plant response rating, Morningglory",[5]; [18],100
same,"Plant response rating, Morningglory",[5]; [19],0
same,"Plant response rating, Morningglory",[5]; [20],50
same,Barnyardgrass plant response rating,[6]; [17],90
same,"Plant response rating, Barnyardgrass",[6]; [18],100
same,"Plant response rating, Barnyardgrass",[6]; [19],10
same,"Plant response rating, Barnyardgrass",[6]; [20],60
same,"Foxtail, Giant plant response rating",[7]; [17],80
same,"Plant response rating, Foxtail, Giant",[7]; [18],90
same,"Plant response rating, Foxtail, Giant",[7]; [19],40
same,"Plant response rating, Foxtail, Giant",[7]; [20],70
same,Corn plant response rating,corn (Zea mays); [17],20
same,"Plant response rating, Corn",corn (Zea mays); [18],40
same,"Plant response rating, Corn",corn (Zea mays); [19],0
same,"Plant response rating, Corn",corn (Zea mays); [20],0
same,Wheat plant response rating,[8]; [17],0
same,"Plant response rating, Wheat",[8]; [18],10
same,"Plant response rating, Wheat",[8]; [19],0
same,"Plant response rating, Wheat",[8]; [20],10
same,"Crabgrass, Large plant response rating",[9]; [17],80
same,"Plant response rating, Crabgrass, Large",[9]; [18],100
same,"Plant response rating, Crabgrass, Large",[9]; [19],90
same,"Plant response rating, Crabgrass, Large",[9]; [20],100
same,Velvetleaf plant response rating,[10]; [17],100
same,"Plant response rating, Velvetleaf",[10]; [18],100
same,"Plant response rating, Velvetleaf",[10]; [19],70
same,"Plant response rating, Velvetleaf",[10]; [20],100
same,Pigweed plant response rating,[11]; [17],100
same,"Plant response rating, Pigweed",[11]; [18],100
same,"Plant response rating, Pigweed",[11]; [19],100
same,"Plant response rating, Pigweed",[11]; [20],100
O=C1CCCC(O)=C1C(=O)c1cnc(-c2ccc(Br)cc2)n(-c2ccccc2)c1=O [Compound 70],"Plant response rating, Flood, Ducksalad",[1],0
same,"Plant response rating, Ducksalad",[1]; [12],0
same,"Plant response rating, Ducksalad",[1]; [13],0
same,Ducksalad plant response rating,[1],0
same,"Plant response rating, Flood, Barnyardgrass",[2],20
same,"Plant response rating, Barnyardgrass",[2]; [12],0
same,"Plant response rating, Barnyardgrass",[2]; [13],0
same,Barnyardgrass plant response rating,[2],0
same,"Plant response rating, Flood, Sedge, Umbrella",[3],20
same,"Plant response rating, Sedge, Umbrella",[3]; [12],0
same,"Plant response rating, Sedge, Umbrella",[3]; [13],20
same,"Sedge, Umbrella plant response rating",[3],0
same,"Plant response rating, Flood, Rice",rice (Oryza sativa),20
same,"Plant response rating, Rice",rice (Oryza sativa); [12],0
same,"Plant response rating, Rice",rice (Oryza sativa); [13],0
same,Rice plant response rating,rice (Oryza sativa),0
same,"Plant response rating, Windgrass",[4]; [14],80
same,Windgrass plant response rating (0 to 100 scale),[4]; [15],85
same,"Plant response rating, Windgrass",[4]; [16],90
same,"Plant response rating, Windgrass","[4]; Postemergence, 250 g ai/ha, scale 0 to 100 (0 no effect, 100 complete control)",100
same,Morningglory plant response rating,[5]; [17],100
same,"Plant response rating, Morningglory",[5]; [18],100
same,"Plant response rating, Morningglory",[5]; [19],0
same,"Plant response rating, Morningglory",[5]; [20],10
same,Barnyardgrass plant response rating,[6]; [17],50
same,"Plant response rating, Barnyardgrass",[6]; [18],80
same,"Plant response rating, Barnyardgrass",[6]; [19],0
same,"Plant response rating, Barnyardgrass",[6]; [20],10
same,"Foxtail, Giant plant response rating",[7]; [17],50
same,"Plant response rating, Foxtail, Giant",[7]; [18],90
same,"Plant response rating, Foxtail, Giant",[7]; [19],30
same,"Plant response rating, Foxtail, Giant",[7]; [20],60
same,Corn plant response rating,corn (Zea mays); [17],0
same,"Plant response rating, Corn",corn (Zea mays); [18],20
same,"Plant response rating, Corn",corn (Zea mays); [19],0
same,"Plant response rating, Corn",corn (Zea mays); [20],0
same,Wheat plant response rating,[8]; [17],0
same,"Plant response rating, Wheat",[8]; [18],0
same,"Plant response rating, Wheat",[8]; [19],0
same,"Plant response rating, Wheat",[8]; [20],0
same,"Crabgrass, Large plant response rating",[9]; [17],50
same,"Plant response rating, Crabgrass, Large",[9]; [18],90
same,"Plant response rating, Crabgrass, Large",[9]; [19],40
same,"Plant response rating, Crabgrass, Large",[9]; [20],90
same,Velvetleaf plant response rating,[10]; [17],100
same,"Plant response rating, Velvetleaf",[10]; [18],100
same,"Plant response rating, Velvetleaf",[10]; [19],70
same,"Plant response rating, Velvetleaf",[10]; [20],80
same,Pigweed plant response rating,[11]; [17],100
same,"Plant response rating, Pigweed",[11]; [18],100
same,"Plant response rating, Pigweed",[11]; [19],60
same,"Plant response rating, Pigweed",[11]; [20],100
